ChEMBL document CHEMBL1146709, “Tetrahydroisoquinoline based sulfonamide hydroxamates as potent matrix metalloproteinase inhibitors” (Bioorg Med Chem Lett, 2004)

How the values were obtained:
Matrilysin [1] = target: T1, Matrilysin (Homo sapiens, UniProt P09237)
T1 sequence (P09237 whole entry): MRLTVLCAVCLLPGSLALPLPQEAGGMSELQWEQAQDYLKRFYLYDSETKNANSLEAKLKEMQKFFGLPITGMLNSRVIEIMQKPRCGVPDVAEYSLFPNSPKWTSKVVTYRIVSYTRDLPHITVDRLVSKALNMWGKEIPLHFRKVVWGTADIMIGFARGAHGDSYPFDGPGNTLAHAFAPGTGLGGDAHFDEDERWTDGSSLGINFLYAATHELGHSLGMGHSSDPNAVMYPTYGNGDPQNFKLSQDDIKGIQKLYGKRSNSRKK

[2] = target: T2, Matrix metalloproteinase-26 (Homo sapiens, UniProt Q9NRE1); experiment: Inhibition of matrix metalloprotease-26 (MMP-26)
T2 sequence (Q9NRE1 whole entry): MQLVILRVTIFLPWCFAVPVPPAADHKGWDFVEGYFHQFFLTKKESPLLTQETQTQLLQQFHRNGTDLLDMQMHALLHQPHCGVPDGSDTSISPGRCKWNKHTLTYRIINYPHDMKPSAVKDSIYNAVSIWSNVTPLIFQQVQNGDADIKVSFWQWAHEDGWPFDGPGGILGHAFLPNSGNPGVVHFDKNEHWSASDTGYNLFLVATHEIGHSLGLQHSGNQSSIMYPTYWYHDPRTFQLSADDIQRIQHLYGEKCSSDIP

[3] = target: Matrix metalloproteinase-9 (Homo sapiens, UniProt P14780); experiment: Inhibition of matrix metalloprotease-9 (MMP-9)
Sequence of Matrix metalloproteinase-9 (P14780 whole entry): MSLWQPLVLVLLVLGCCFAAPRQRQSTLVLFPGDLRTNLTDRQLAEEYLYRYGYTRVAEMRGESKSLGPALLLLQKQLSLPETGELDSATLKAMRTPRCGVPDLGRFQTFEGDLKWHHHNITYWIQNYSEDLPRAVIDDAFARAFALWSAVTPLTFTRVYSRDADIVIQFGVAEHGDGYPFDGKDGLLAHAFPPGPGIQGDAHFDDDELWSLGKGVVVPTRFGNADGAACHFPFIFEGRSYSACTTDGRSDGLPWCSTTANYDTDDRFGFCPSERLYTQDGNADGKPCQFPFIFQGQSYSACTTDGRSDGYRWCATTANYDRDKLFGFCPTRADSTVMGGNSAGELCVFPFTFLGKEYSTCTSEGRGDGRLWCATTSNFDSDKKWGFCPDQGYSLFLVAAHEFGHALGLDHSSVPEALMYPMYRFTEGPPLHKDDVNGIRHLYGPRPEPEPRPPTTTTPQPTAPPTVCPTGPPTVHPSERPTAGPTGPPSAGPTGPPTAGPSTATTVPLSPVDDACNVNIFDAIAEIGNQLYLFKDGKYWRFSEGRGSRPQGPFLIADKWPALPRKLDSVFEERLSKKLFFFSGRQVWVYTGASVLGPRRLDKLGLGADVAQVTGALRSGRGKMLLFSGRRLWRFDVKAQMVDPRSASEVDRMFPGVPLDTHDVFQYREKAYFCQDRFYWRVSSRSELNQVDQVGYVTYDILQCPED

[4] = target: Matrix metalloproteinase-15 (Homo sapiens, UniProt P51511); experiment: Inhibition of matrix metalloprotease-15 (MMP-15)
Sequence of Matrix metalloproteinase-15 (P51511 whole entry): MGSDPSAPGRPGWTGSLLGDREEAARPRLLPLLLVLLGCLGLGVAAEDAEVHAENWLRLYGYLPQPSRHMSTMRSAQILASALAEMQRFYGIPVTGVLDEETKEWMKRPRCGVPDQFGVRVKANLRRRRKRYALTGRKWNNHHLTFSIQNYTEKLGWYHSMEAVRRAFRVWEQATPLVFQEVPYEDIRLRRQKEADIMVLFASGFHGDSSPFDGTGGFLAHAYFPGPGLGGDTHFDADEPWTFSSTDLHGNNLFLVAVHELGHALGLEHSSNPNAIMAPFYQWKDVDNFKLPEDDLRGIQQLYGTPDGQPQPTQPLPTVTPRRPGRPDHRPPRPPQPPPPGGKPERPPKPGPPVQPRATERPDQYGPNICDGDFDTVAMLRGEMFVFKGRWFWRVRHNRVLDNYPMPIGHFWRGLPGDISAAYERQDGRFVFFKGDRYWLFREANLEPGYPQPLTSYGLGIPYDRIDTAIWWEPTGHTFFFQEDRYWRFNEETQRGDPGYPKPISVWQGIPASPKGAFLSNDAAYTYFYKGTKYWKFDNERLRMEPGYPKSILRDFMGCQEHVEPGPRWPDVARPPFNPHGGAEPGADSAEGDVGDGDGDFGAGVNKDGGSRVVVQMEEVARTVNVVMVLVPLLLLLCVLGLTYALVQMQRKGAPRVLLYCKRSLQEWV

[5] = target: Matrix metalloproteinase-14 (Homo sapiens, UniProt P50281); experiment: Inhibition of matrix metalloprotease-14 (MMP-14)
Interstitial collagenase [6] = target: T3, Interstitial collagenase (Homo sapiens, UniProt P03956); experiment: Inhibition of matrix metalloprotease-1 (MMP-1)
T3 sequence (P03956 whole entry): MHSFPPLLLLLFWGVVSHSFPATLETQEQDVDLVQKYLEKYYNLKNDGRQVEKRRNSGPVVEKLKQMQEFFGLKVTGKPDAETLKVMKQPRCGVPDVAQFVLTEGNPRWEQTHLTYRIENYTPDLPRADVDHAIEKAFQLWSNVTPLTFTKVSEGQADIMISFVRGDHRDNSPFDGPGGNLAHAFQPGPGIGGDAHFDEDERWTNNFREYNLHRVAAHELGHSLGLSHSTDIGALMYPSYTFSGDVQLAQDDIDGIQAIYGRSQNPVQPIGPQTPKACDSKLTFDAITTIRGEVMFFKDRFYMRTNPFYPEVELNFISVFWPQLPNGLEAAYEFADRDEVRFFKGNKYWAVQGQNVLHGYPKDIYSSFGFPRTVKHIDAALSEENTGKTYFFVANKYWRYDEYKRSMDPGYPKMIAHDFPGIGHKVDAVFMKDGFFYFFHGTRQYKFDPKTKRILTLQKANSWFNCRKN

[7] = target: 72 kDa type IV collagenase (Homo sapiens, UniProt P08253); experiment: Inhibition of matrix metalloprotease-2 (MMP-2)
Sequence of 72 kDa type IV collagenase (P08253 whole entry): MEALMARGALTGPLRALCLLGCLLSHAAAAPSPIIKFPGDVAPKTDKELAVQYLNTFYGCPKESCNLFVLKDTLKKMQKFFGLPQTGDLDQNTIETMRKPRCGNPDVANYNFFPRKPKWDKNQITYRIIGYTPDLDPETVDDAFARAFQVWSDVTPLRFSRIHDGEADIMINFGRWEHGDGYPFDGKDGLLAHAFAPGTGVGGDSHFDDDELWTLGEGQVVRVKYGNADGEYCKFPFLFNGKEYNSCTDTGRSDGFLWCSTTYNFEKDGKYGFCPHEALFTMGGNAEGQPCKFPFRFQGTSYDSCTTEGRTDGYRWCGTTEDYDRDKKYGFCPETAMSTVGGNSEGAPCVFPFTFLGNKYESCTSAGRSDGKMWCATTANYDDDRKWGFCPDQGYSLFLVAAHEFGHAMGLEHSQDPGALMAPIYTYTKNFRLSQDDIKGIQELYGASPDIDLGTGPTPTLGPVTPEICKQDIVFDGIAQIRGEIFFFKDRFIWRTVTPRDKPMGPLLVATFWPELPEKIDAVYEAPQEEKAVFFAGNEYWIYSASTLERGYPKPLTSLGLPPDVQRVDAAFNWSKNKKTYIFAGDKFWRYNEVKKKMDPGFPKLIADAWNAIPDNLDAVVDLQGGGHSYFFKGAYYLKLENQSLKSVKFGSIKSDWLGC

[8] = target: Macrophage metalloelastase (Homo sapiens, UniProt P39900); experiment: Inhibition of matrix metalloprotease-12 (MMP-12)
Sequence of Macrophage metalloelastase (P39900 whole entry): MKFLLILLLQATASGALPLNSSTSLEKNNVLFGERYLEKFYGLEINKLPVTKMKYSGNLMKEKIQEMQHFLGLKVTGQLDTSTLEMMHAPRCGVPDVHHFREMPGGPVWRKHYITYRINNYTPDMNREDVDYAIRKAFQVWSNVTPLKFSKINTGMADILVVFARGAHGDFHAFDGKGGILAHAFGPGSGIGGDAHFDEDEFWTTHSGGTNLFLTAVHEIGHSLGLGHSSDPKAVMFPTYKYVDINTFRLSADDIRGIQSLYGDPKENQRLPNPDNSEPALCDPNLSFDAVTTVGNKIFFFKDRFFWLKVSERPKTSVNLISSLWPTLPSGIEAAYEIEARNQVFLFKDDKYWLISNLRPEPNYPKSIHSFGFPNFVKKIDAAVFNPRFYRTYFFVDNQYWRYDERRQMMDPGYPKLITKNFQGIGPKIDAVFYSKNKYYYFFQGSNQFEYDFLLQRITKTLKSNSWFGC

[9] = target: Matrix metalloproteinase-16 (Homo sapiens, UniProt P51512); experiment: Inhibition of matrix metalloprotease-16 (MMP-16)
Sequence of Matrix metalloproteinase-16 (P51512 whole entry): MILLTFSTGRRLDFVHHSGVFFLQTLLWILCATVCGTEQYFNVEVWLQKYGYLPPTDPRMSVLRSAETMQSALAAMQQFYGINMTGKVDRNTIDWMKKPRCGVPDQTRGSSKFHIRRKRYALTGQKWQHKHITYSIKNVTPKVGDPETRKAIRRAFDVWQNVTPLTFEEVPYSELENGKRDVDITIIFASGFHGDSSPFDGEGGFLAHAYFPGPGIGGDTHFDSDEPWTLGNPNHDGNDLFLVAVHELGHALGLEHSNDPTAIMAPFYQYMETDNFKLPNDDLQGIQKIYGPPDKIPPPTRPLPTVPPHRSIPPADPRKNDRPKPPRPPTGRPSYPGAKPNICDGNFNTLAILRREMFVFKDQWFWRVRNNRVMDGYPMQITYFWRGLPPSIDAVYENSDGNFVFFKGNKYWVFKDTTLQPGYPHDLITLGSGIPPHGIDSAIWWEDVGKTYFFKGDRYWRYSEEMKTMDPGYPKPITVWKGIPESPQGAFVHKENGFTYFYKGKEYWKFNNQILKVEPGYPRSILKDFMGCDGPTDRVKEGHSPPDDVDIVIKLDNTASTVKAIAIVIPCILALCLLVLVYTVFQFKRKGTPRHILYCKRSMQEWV

Matrilysin [10] = target: T1, Matrilysin; experiment: Inhibition of matrix metalloprotease-7 (MMP-7)
Interstitial collagenase [11] = target: T3, Interstitial collagenase
[12] = target: T2, Matrix metalloproteinase-26; experiment: Inhibition of matrix metalloprotease-26 (MMP-26) (inactive up to 50 uM)

IC50 (Matrilysin [1]) | IC50 [12] | Compound | IC50 [2] [nM] | IC50 [3] [nM] | IC50 [4] [nM] | IC50 [5] [nM] | IC50 (Interstitial collagenase [6]) [nM] | IC50 [7] [nM] | IC50 [8] [nM] | IC50 [9] [nM] | IC50 (Matrilysin [10]) [nM] | IC50 (Interstitial collagenase [11])
Not Active | – | O=C(NO)C1c2ccc(O)cc2CCN1S(=O)(=O)c1ccccc1 (configuration not stated) | 858 | 335 | 218 | 1100 | 6320 | 430 | 421 | 184 | – | –
– | – | Cc1ccc(S(=O)(=O)N2CCc3cc(OCc4ccccc4)ccc3C2C(=O)NO)cc1 (configuration not stated) | 2050 | 130 | 44 | 62 | 462 | 33 | 72 | 56 | 12000 | –
– | – | O=C(NO)C1c2ccc(O)cc2CCN1S(=O)(=O)c1ccc([N+](=O)[O-])cc1 (configuration not stated) | 791 | 258 | 126 | 521 | 41 | 76 | 59 | 177 | 21400 | –
Not Active | Not Active | O=C(NO)C1c2ccc(OCc3ccccc3)cc2CCN1S(=O)(=O)c1cc(Cl)ccc1Cl (configuration not stated) | – | 3120 | 7300 | 20800 | – | 1100 | 931 | 4630 | – | Not Active
– | – | O=C(NO)C1c2ccc(OCc3ccccc3)cc2CCN1S(=O)(=O)c1ccccc1 (configuration not stated) | 1450 | 35 | 17 | 39 | 452 | 24 | 57 | 35 | 7140 | –
– | – | Cc1ccc(S(=O)(=O)N2CCc3cc(O)ccc3C2C(=O)NO)cc1 (configuration not stated) | 97 | 40 | 19 | 52 | 152 | 18 | 29 | 21 | 10500 | –
– | – | COc1cc2c(cc1O)CCN(S(=O)(=O)c1ccccc1)C2C(=O)NO (configuration not stated) | 146 | 100 | 29 | 867 | 595 | 27 | 65 | 40 | 10700 | –
– | – | COc1ccc(S(=O)(=O)N2CCc3cc(O)c(OC)cc3C2C(=O)NO)cc1 (configuration not stated) | 86 | 46 | 6 | 68 | 123 | 26 | 20 | 16 | 3190 | –
Not Active | – | Nc1ccc(S(=O)(=O)N2CCc3cc(O)ccc3C2C(=O)NO)cc1 (configuration not stated) | 492 | 248 | 385 | 835 | 13200 | 150 | 191 | 202 | – | –
Not Active | – | COc1ccc(S(=O)(=O)N2CCc3cc(O)ccc3C2C(=O)NO)cc1 (configuration not stated) | 7510 | 4100 | 621 | 3110 | 15000 | 724 | 7690 | 1680 | – | –
– | – | COc1ccc(S(=O)(=O)N2CCc3cc(OCc4ccccc4)ccc3C2C(=O)NO)cc1 (configuration not stated) | 744 | 30 | 4 | 34 | 88 | 16 | 57 | 22 | 2420 | –
– | – | O=C(NO)C1c2ccc(O)cc2CCN1S(=O)(=O)c1cc(Cl)ccc1Cl (configuration not stated) | 7900 | 1880 | 1790 | 4610 | – | 853 | 170 | 1840 | 21400 | Not Active
– | – | CNC(=O)[C@H](Cc1c[nH]c2ccccc12)NC(=O)[C@@H](CC(=O)NO)CC(C)C [ILOMASTAT] | 17 | – | – | 23 | – | – | 13 | 8 | – | –
